Reference: patent US20250082620A1, “NOVEL CINNAMAMIDE DERIVATIVES AND USE THEREOF” (KOREA RESEARCH INSTITUTE OF BIOSCIENCE AND BIOTECHNOLOGY, priority 2022, published 2025)
One block for each molecule: values may come before it.

Key:
[1] = tested on: human-derived prostate cancer (DU-145); assay: Nude mouse subcutaneous transplant model of human-derived prostate cancer (DU-145); format: in vivo, nude mice
Experimental: It was attempted to evaluate the anticancer efficacy of the compound CG165 of the present disclosure by oral administration using nude mouse subcutaneous transplant models of human-derived prostate cancer (DU-145).
Specifically. Athymic-NCr NCr-nu specific pathogen-free (SPF) 5-week-old nude mice supplied by KOATECH (Pyeongtaek-si, Gyeonggi-do) were used as animals. The cancer cell concentration was adjusted to 3×10^7 cells/mL, and 0.3 mL of cell culture per mouse was injected subcutaneously into the axillary area between the right shoulder and chest wall. Subsequently, CG165 was prepared at the corresponding concentrations by adding DMAC 10%+Tween80 10%+20% HPBCD 80% step by step, and was administered orally at 0.2 mL per 20 g of mouse, which was repeated a total of 23 times for 30 days. At 30 days after starting drug administration, the DU-145 tumor was excised and its weight was measured.
Next, it was attempted to evaluate the anticancer efficacy of the compound CG126 of the present disclosure by intraperitoneal administration using nude mouse subcutaneous transplant models of human-derived prostate cancer (DU-145) in the same manner as above.

STAT3 activity (p-STAT3) [2] = target: T1, STAT3 activity (p-STAT3) (Homo sapiens, UniProt P40763); assay: STAT3 phosphorylation inhibitory effect in cancer cell line by Western blot (Table 2); format: cell-based; design: endogenous in cells; host or cells: unnamed 'rectal cancer cell' line; conditions: rectal cancer cell line, read-out: Concentration at which STAT3 activity (p-STAT3) is inhibited by 50% (μM; IC50)
Experimental: (§1) Prostate cancer cell line DU-145, breast cancer cell MDA-MB 468, lung cancer cell HCC827, natural killer cells (NKL), or bone marrow-derived macrophages (BMDM) (4×10^5 cells), which are immune cells, were plated in a 6-well plate. After 24 hours, the cells were each treated with 0.1% DMSO, HCA, EA, and the compounds prepared in Synthesis Examples 1 to 8 according to concentration and time, washed with PBS, and recovered using RIPA buffer. […] of protein quantified using the Bio-Rad protein assay kit (Bio-Rad, Hercules, California, USA) was subjected to 8% SDS-PAGE electrophoresis and transferred to a PVDF membrane (EMD Millipore, Billerica, MA, USA). After blocking the membrane with TBST containing 5% skim milk, the experiment was performed using primary and secondary antibodies. The primary antibodies used were p-STAT3 (Y705) (Cell Signaling), STAT3 (Cell Signaling), Cyclin D1 (Santa Cruz), Cyclin A (Santa Cruz), Mcl-1 (Santa Cruz), Survivin (Cell Signaling), Bcl-XL (Santa Cruz), and PARP (Cell Signaling) GAPDH (Santa Cruz), and the secondary antibodies used were HRP-conjugated goat anti-rabbit and anti-mouse IgG (Jackson ImmunoResearch Laboratories, West Grove, PA, USA). The antibodies used were each washed three times with TBST, and bands were detected using Luminata Forte Western HRP substrate (EMD Millipore) by LAS 4000 mini (GE Healthcare Life Sciences). Subsequently, correction using GAPDH was performed using the MultiGauge program (Fuji Photo Film, Tokyo, Japan).
The STAT3 phosphorylation inhibitory effect of the cinnamamide derivatives of Chemical Formula 1 prepared in Synthesis Examples 1 to 8 in cancer cell lines was confirmed by Western blot.
Specifically, the STAT3 phosphorylation inhibitory effect in rectal cancer cell was confirmed line as an example of representative carcinoma.

[3] = target: T2, STAT3 phosphorylation (p-STAT3) (Homo sapiens, UniProt P40763); assay: STAT3 phosphorylation inhibition in natural killer cells (NKL) by Western blot; format: cell-based; conditions: 2, 5, 10 μM
T2 construct: endogenous in cells; host or cells: NKL natural killer cells
Experimental: as §1, with “The primary antibodies used were p-STAT3 (Y705) (Cell Signaling), STAT3 (Cell Signaling), Cyclin D1 (Santa Cruz), Cyclin A (Santa Cruz), Mcl-1 (Santa Cruz), Survivin (Cell Signaling), Bcl-XL (Santa Cruz), and PARP (Cell Signaling) GAPDH (Santa Cruz), and the secondary antibodies used were HRP-conjugated goat anti-rabbit and anti-mouse IgG (Jackson ImmunoResearch Laboratories, West Grove, PA, USA).” left out, “Subsequently, correction using GAPDH was performed using the MultiGauge program (Fuji Photo Film, Tokyo, Japan).” left out
Specifically, NKL (4×10^5 cells) were plated in 6-well plate and each treated with 2 μM, 5 μM, and 10 μM of CG155 or CG165, and then the degree of STAT3 phosphorylation was measured by Western blot using p-STAT3 antibody.

[4] = target: T3, STAT3 phosphorylation (p-STAT3) (Mus musculus, UniProt P42227); assay: STAT3 phosphorylation inhibition in IL-10-treated bone marrow-derived macrophages (BMDM) by Western blot; format: cell-based, C57BL/6 mice; conditions: for inhibition of phosphorylation of STAT3, dependence on concentration: 1 hour pre-treatment, then IL-10 for 15 minutes
T3 construct: the bone marrow-derived macrophages isolated from mouse bone marrow; endogenous in cells; host or cells: primary bone marrow-derived macrophages from C57BL/6 mice
Experimental: as §1, with “Japan). […]” for “Japan).”
Subsequently, in order to confirm the function of CG155 and CG165 in inhibiting STAT3 activation in the bone marrow-derived macrophages isolated from mouse bone marrow, the bone marrow-derived macrophages were each pre-treated with DMSO, CG155 (5 μM, 10 μM), and CG165 (2 μM, 5 μM) for 1 hour. After removing the culture medium, the bone marrow-derived macrophages were treated with interleukin-10 (IL-10), a type of cytokine that can activate STAT3, for 15 minutes, and the function of CG155 and CG165 on inhibiting STAT3 activation was measured by Western blot using p-STAT3 antibody.

STAT3 activity (p-STAT3) [5] = target: T1, STAT3 activity (p-STAT3); assay: STAT3 phosphorylation inhibition in prostate cancer cell line DU-145 by Western blot; format: cell-based; design: endogenous in cells; host or cells: DU-145, MDA-MB-468, HCC827
Experimental: as §1
Next, the STAT3 phosphorylation inhibitory effect of the compound CG165 of the present disclosure in cancer cell lines was confirmed by Western blot.

[6] = tested on: human foreskin fibroblasts HFF; assay: Cell viability (WST-1) in normal cells HFF; format: cell-based; conditions: 10 μM, 48 hours
[7] = tested on: MCF10A, human breast epithelial cells; assay: Cell viability (WST-1) in normal cells MCF10A; format: cell-based; conditions: 10 μM, 48 hours
[8] = tested on: STAT3 target proteins (cyclin A, Mcl-1, survivin), caspase 3, PARP; assay: Expression of STAT3 target proteins and apoptotic effect in cancer cell lines by Western blot; format: cell-based
Experimental: as §1
In Example 1, it was confirmed that STAT3 activity (p-STAT3) was inhibited in cancer cells when treated with the compound CG165 of the present disclosure. The effect of inhibiting the expression of STAT3 target proteins and the apoptotic effect due to the inhibition of STAT3 activity were confirmed using Western blot.

[9] = tested on: breast cancer cell line MDA-MB-468; assay: Cell proliferation assay (WST-1) in breast cancer cell line MDA-MB-468; format: cell-based; conditions: 24 or 48 hours
Experimental: (§2) In Example 1, it was confirmed that STAT3 activity (p-STAT3) was inhibited by more than 50% in cancer cells when treated with the compound CG165 of the present disclosure. In order to confirm the effect of inhibiting STAT3 activity on inhibition of cancer cell growth, cell proliferation assay was performed using the breast cell line, a representative carcinoma.
Specifically, the breast cancer cell line MDA-MB-468 was treated with CG-165 according to concentrations for 24 or 48 hours, and then the degree of cell viability was measured using the WST-1 assay (Dojindo Laboratories, Kumamoto, Japan).

[10] = tested on: prostate cancer cell line DU-145; assay: Cell proliferation assay (WST-1) in prostate cancer cell line DU-145; format: cell-based, human; conditions: 24 or 48 hours
Experimental: as §2, with “inhibited” for “inhibited by more than 50%”, “cinnamamide derivatives” for “compound CG165”, “Chemical Formula 1 prepared in Synthesis Examples 1 to 8.” for “the present disclosure.”, “prostate cancer” for “breast”
Specifically, the prostate cancer cell line DU-145 (0.8×10^4 cells) was plated in a 96-well plate. After 24 hours, DMSO (control) and CG-165 were treated for 24 or 48 hours according to concentration, and then treated with 10 ul of WST-1 reagent (Dojindo Laboratories, Kumamoto, Japan). After treatment for about 1 hour, cell viability was calculated using the absorbance measured at 450 nm with a microplate reader (Multiskan GO system, Thermo Fisher Scientific, Rockford, IL, USA).

[11] = Single oral dose toxicity in mice; format: in vivo; conditions: male mice; 100 mg/kg, 200 mg/kg, and 300 mg/kg
Experimental: In order to obtain information on the acute toxicity of the compound CG165 of the present disclosure whose anticancer effect has been verified in animal models, the test substance was administered orally once at 100 mg/kg, 200 mg/kg, and 300 mg/kg to male mice to determine mortality, general symptoms, weight change, and post-mortem over 7 days.
Specifically, 20 Athymic-NCr NCr-nu specific pathogen-free (SPF) 5-week-old nude mice supplied by KOATECH (Pyeongtaek-si, Gyeonggi-do) were used as animals. Subsequently, CG165 was prepared as administration solution at different concentrations by adding DMAC 10%+Tween80 10%+20% HPBCD 80% step by step, and was administered orally.
General symptoms and dead animals were observed every hour from 1 to 6 hours after the final administration on the day of administration, and once daily from the day after administration until the 7th day for observation of changes in general symptoms, toxic symptoms, and the presence of dead animals.
In order to observe changes in body weight, the body weight of all animals used in the test was measured before administration and on days 0, 1, 2, 4, and 7 after administration.
On the 7th day after administration, all animals were anesthetized using CO2 gas, laparotomized, and killed by exsanguination by cutting the abdominal artery and vein, and all internal organs were visually observed.

STAT3 activity (p-STAT3) [12] = target: T1, STAT3 activity (p-STAT3); assay: STAT3 phosphorylation inhibition in breast cancer cell line MDA-MB-468 by Western blot; format: cell-based; design: endogenous in cells
Experimental: as §1, with “Subsequently, correction using GAPDH was performed using the MultiGauge program (Fuji Photo Film, Tokyo, Japan).” left out

STAT3 activity (p-STAT3) [13] = target: T1, STAT3 activity (p-STAT3); assay: STAT3 phosphorylation inhibition in lung cancer cell line HCC827 by Western blot; format: cell-based; design: endogenous in cells
Experimental: as §1, with “Subsequently, correction using GAPDH was performed using the MultiGauge program (Fuji Photo Film, Tokyo, Japan).” left out

T1 sequence (P40763 whole entry): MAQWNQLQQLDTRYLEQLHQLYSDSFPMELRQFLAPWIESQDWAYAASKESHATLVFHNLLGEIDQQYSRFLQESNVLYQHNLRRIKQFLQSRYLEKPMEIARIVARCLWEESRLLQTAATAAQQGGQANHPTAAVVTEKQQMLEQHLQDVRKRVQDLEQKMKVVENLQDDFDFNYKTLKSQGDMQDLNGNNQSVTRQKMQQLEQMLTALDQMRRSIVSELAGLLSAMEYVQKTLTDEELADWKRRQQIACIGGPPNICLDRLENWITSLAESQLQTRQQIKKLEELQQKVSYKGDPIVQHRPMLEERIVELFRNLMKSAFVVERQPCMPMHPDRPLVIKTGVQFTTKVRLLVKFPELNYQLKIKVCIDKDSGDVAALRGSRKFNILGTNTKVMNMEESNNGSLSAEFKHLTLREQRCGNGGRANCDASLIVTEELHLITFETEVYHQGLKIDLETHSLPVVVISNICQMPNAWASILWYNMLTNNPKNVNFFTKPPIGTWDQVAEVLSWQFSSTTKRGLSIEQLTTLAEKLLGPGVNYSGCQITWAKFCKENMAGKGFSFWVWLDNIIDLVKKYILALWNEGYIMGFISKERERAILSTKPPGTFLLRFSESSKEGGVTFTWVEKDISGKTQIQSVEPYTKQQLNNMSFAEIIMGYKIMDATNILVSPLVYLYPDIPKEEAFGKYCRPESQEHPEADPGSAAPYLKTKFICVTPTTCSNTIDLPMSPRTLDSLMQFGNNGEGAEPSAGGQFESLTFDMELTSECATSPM
T3 sequence (P42227 whole entry): as the sequence (P40763 whole entry) above, with E760D counted along it
T2 sequence (P40763 whole entry): as the sequence (P40763 whole entry) above

SMILES: C=C(C)C(=O)NC(=O)/C=C/c1ccccc1C [CG127]
IC50 (STAT3 activity (p-STAT3) [2]): 8.1 µM

SMILES: C=C(C)C(=O)NC(=O)/C=C/c1ccccc1O [CG133]
IC50 (STAT3 activity (p-STAT3) [2]): 6.2 µM

SMILES: C#CCOc1ccccc1/C=C/C(=O)N(C)C(=O)C(=C)C [CG165]
inhibition of STAT3 activity (p-STAT3), dependence on concentration (STAT3 activity (p-STAT3) [5]): concentration-dependent manner
inhibition of STAT3 activity (p-STAT3), dependence on time (STAT3 activity (p-STAT3) [5]): time-dependent manner
inhibition at 2 µM (STAT3 activity (p-STAT3) [5]; 2 μM): > 50%
effect on the growth of normal cells (cell viability, WST-1) [6]: no significant effect
effect on the growth of normal cells (cell viability, WST-1) [7]: no significant effect
inhibition of phosphorylation of STAT3, dependence on concentration [3]: concentration-dependent manner
inhibition at 5 µM ([4]; 5 μM, IL-10 stimulated, read-out: inhibition of STAT3 activation): > 90%
inhibition of phosphorylation of STAT3, dependence on concentration [4]: concentration-dependent manner
caspase 3 activation [8]: activated
decomposition of PARP protein (cell death biomarker) [8]: promoted
expression of cyclin A, Mcl-1, and survivin (target proteins of STAT3) [8]: significantly inhibited
inhibition of growth of breast cancer cells (cell viability, WST-1) [9]: inhibited the growth of breast cancer cells in a concentration-dependent manner
inhibition of growth of cancer cells (cell viability, WST-1) [10]: inhibited the growth of cancer cells in a concentration-dependent manner
change in body weight compared to the vehicle ([1]; 30 mg/kg oral): no decrease in body weight was observed
decrease in tumor weight compared to the vehicle ([1]; 30 mg/kg oral, day 30, p<0.05): 43.3%
change in body weight compared to the vehicle ([1]; 60 mg/kg oral): no decrease in body weight was observed
decrease in tumor weight compared to the vehicle ([1]; 60 mg/kg oral, day 30, p<0.05): 64.3%
tumor growth inhibition (tumor size) compared to the vehicle ([1]; 60 mg/kg oral, day 30, p<0.05): 63.3%
tumor growth inhibition (tumor size) compared to the vehicle ([1]; P.O, 30 mg/kg, day 30, p<0.05): 45.6%
toxicological changes upon single oral administration [11]: did not cause toxicological changes
IC50 (STAT3 activity (p-STAT3) [2]): 1.8 µM
inhibition of STAT3 activity (p-STAT3), dependence on concentration (STAT3 activity (p-STAT3) [12]): concentration-dependent manner
inhibition at 5 µM (STAT3 activity (p-STAT3) [12]; 5 μM): > 50%
inhibition of STAT3 activity (p-STAT3), dependence on concentration (STAT3 activity (p-STAT3) [13]): concentration-dependent manner
inhibition at 5 µM (STAT3 activity (p-STAT3) [13]; 5 μM): > 50%

SMILES: C=C(C)C(=O)NC(=O)/C=C/c1ccccc1OCc1ccccc1 [CG187]
IC50 (STAT3 activity (p-STAT3) [2]): 3.5 µM

Further lines, with some results ahead:

IC50 (STAT3 activity (p-STAT3) [2]): 3.7 µM
SMILES: C=C(C)C(=O)NC(=O)/C=C/c1ccccc1OC [CG126]
decrease in tumor weight compared to the vehicle ([1]; 30 mg/kg intraperitoneal, day 25, p<0.06): 54.2%

inhibition of phosphorylation of STAT3, dependence on concentration [4]: concentration-dependent manner
IC50 (STAT3 activity (p-STAT3) [2]): 5 µM
SMILES: C=C(C)C(=O)NC(=O)/C=C/c1ccccc1OCc1ccncc1 [CG155]
inhibition of phosphorylation of STAT3, dependence on concentration [3]: concentration-dependent manner

IC50 (STAT3 activity (p-STAT3) [2]): 3.5 µM
SMILES: C#CCOc1ccccc1/C=C/C(=O)NC(=O)C(=C)C [CG164]

IC50 (STAT3 activity (p-STAT3) [2]): 2 µM
SMILES: C=C(C)C(=O)NC(=O)/C=C/c1ccccc1Cl [CG168]
